Test results from PMC7391724 (Scientific Reports, 2020).
Where a name gives a salt, the structure may show the parent alone.

Experiments:
KB-CR tumors = assay: Cisplatin-resistant KB-CR tumor xenograft in nu/nu mice; type: in vivo
Procedure: (§1) Four- to eight-week-old female nu/nu mice and rats (Harlan Sprague Dawley, Inc.), were maintained on a standard 12-h light–dark cycle and fed ad libitum with a low-folate chow (Harlan Teklad diet #TD.01013, Madison, WI) for the duration of dosing and 1 week post dosing schedule. Mice and rats were then switched to Teklad Global 18% Rodent diet (Harlan Teklad diet #2018S) during the monitoring phase of the study. Parental KB, KB-CR2000 or KB-PR10 cells (1 × 10^6/100 µL per nu/nu mouse and 5 × 10^6/200 µL per nu/nu rat) were injected into the subcutis of the dorsal medial area. Mice were divided into groups of 5 and rats in groups of 3–4, and freshly prepared test articles were injected through the lateral tail vein under sterile conditions in a volume of 200 μL/20 g of PBS. In mice, intravenous treatments typically initiated on day 7 PTI when KB tumors were approximately 111–168 mm^3 in volume, on day 5 PTI when the KB-PR tumors were about 205–243 mm^3, and on day 6 PTI when the KB-CR tumors were around 98 to 168 mm^3. Treatments in rats were started on day 10 PTI when KB tumors were approximately 412–704 mm^3 in volume.
(§2) Animals in the control groups received no treatment. Growth of each subcutaneous tumor was followed by measuring the tumor 3 times per week during treatment and twice per week thereafter, until a maximum volume of 1,500 mm^3 for mice and 15,000 mm^3 for rats were reached. Tumors were measured in two perpendicular directions using Vernier calipers, and their volumes were calculated as V = 0.5 × L × W^2, where L = measurement of longest axis in mm and W = measurement of axis perpendicular to L in mm[16]. As a general measure of gross toxicity, changes in body weights were determined on the same schedule as tumor volume measurements. Survival of animals was monitored daily. Animals that were moribund (or unable to reach food or water) were euthanized by CO2 asphyxiation. Individual tumor response endpoints were reported in terms of tumor volume change. A partial response (PR) was defined as volume regression > 50% but with measurable tumor (> 2 mm^3) remaining at all times. Complete response (CR) was defined as a disappearance of measurable tumor mass (< 2 mm^3) at some point within 90 days after tumor implantation. Cures were defined as CRs without tumor regrowth within the 90-day study time frame.

[1] = system: ST502 patient derived xenograft; assay: ST502 triple negative breast PDX model; type: in vivo, nu/nu mice
Procedure: (§3) Patient derived xenograft (PDX) studies were performed at South Texas Accelerated Research Therapeutics (START, San Antonio, TX). Patient tumor tissues were obtained with patients’ informed consent and PDX models were generated after multiple generations in mice. […] Tumor fragments were harvested from host animals and implanted into 6–12 weeks old female athymic nude mice (Crl:NU(NCr)-Foxn1nu). Intravenous treatments were initiated when ST502 (triple negative breast) tumors were approximately 112–333 mm^3, ST738 (triple negative breast) tumors were 112–300 mm^3, ST040 (endometrial) tumors were 78–333 mm^3, and ST070 (ovarian) tumors were 131–266 mm^3 in volume.
as §2

[2] = system: ST738 patient derived xenograft; assay: ST738 triple negative breast PDX model; type: in vivo, nu/nu mice; conditions: Eribulin mesylate 1 mg/kg SIW x 2 weeks, n=7
Procedure: as §3, §2

[3] = Liver microsome stability assay, dog; type: in vitro ADME; conditions: 1 µM; for percent of compound remaining: 37 °C
Procedure: (§4) Appropriate microsomes (XenoTech) were incubated with EC2491 in the presence or absence of NADPH regenerating system (Corning Gentest) at 37 °C. Incubations with NADPH contained 352.5 μL DI water, 100 μL 0.5 M potassium phosphate buffer, pH 7.4, 25 μL NADPH solution A, […], and 12.5 μL of the appropriate microsomes. Incubations without NADPH contained 382.5 μL water, 100 μL 0.5 M potassium phosphate buffer, pH 7.4, and 12.5 μL of the appropriate microsomes. 50 μL aliquots were withdrawn at various time points and mixed with internal standard, EC3044 (Endocyte) in acetonitrile. After mixing and evaporation of the acetonitrile, the samples were reconstituted. The samples were mixed, centrifuged, and 100 μL of supernatant was transferred to a new plate prior to LC–MS/MS analysis.

[4] = Plasma protein binding (ultrafiltration), across all species; type: in vitro ADME; conditions: rat, mouse, dog, human, 37 °C, read-out: plasma protein binding, range across all species
Procedure: Plasma ultrafiltration was used for determination of free and protein bound fractions of EC2629 and EC2491. Samples were extracted and analyzed using fit-for-purpose bioanalytical methods. Briefly, 500 nM EC2629 or EC2491 was spiked into plasma maintained at 37 °C prior to plasma ultrafiltration. Plasma spiked with 500 nM EC2629 or EC2491 was allowed to equilibrate at 37 °C for 30 min prior to processing. Next, 50 μL of plasma was transferred to a clean 1.2 mL plate stored at 2–8 °C for further processing. The remaining plasma sample volumes were transferred to 30 Kd MWCO PES filter to generate plasma ultrafiltrate by centrifugation at 10,000×g for 20 min. After which, 50 μL of each plasma ultrafiltrate was transferred to separate wells in a clean 1.2 mL plate. To all spiked plasma samples, 50 μL of blank plasma ultrafiltrate was added. 50 μL of blank plasma was added to all experimental ultrafiltrate samples. These blank matrix additions normalized the matrix effects for protein binding determination. Samples were then extracted using protein precipitation with a 3:1 ratio of acetonitrile after addition of internal standard. The supernatant transferred to a new plate, evaporated, and reconstituted prior to LC–MS/MS analysis.

Plasma stability, dog = type: in vitro ADME; conditions: 37 °C
Procedure: (§5) Whole blood and plasma stability were determined for EC2629 and EC2491 at a concentration of 500 nM. Samples were extracted and analyzed using fit-for-purpose bioanalytical methods. EC2629 or EC2491 was spiked into 1 mL whole blood or plasma maintained at 37 °C for 30 min prior to use . Fifty µl aliquots were then removed at defined timepoints and stored in a 1.2 mL extraction plate prior to analysis. Samples were then extracted using protein precipitation with a 3:1 ratio of acetonitrile after addition of internal standard. The supernatant was then transferred to a new plate, evaporated, and reconstituted prior to LC–MS/MS analysis.

[5] = Stability in phosphate buffer pH 7.4; type: physicochemical; conditions: 1 µM, 0.1 M phosphate buffer, pH 7.4, up to 1 h at 37 °C
Procedure: The in vitro metabolic stability of EC2491 was evaluated using rat, dog, and human liver microsomes in the presence and absence of NADPH. Stability of EC2491 was also evaluated in phosphate buffer, pH 7.4, under the incubation conditions (see Fig. 7a). EC2491 (1 µM) is stable in 0.1 M phosphate buffer, pH 7.4 up to 1 h at 37 °C. When EC2491 (1 µM) is incubated with male rat, dog, and human microsomes in the absence of NADPH, there is some depletion of the compound such that approximately 63%, 56%, and 49% of the compound remains after 1 h in rat, dog, and human microsomes, respectively. […] In the presence of NADPH male rat liver microsomes metabolize EC2491 rapidly such that only 2% of the compound remains in the incubation mixture at the end of 1 h. Male dog and human liver microsomes metabolize EC2491 somewhat slowly (22% and 18% remaining at the end of 1 h respectively). This is indicative of CYP-mediated metabolism of EC2491.

[6] = Whole blood stability, mouse; type: in vitro ADME; conditions: 37 °C, after two hours, mouse whole blood, read-out: percent remaining in whole blood
Procedure: as §5

Plasma stability, rat = type: in vitro ADME; conditions: 37 °C
Procedure: as §5

Plasma stability, mouse = type: in vitro ADME; conditions: 37 °C
Procedure: as §5

[7] = Liver microsome stability assay, human; type: in vitro ADME; conditions: 1 µM, human liver microsomes, 37 °C
Procedure: as §4

[8] = Whole blood stability, human; type: in vitro ADME; conditions: 37 °C, after two hours, human whole blood, read-out: percent remaining in whole blood
Procedure: as §5

[9] = Whole blood stability, rat; type: in vitro ADME; conditions: 37 °C, after two hours, read-out: percent remaining in whole blood
Procedure: as §5

[10] = Liver microsome stability assay, rat; type: in vitro ADME; conditions: 1 µM; for percent of compound remaining: male rat liver microsomes, 37 °C
Procedure: as §4

[11] = Whole blood stability, dog; type: in vitro ADME; conditions: 37 °C, after two hours, read-out: percent remaining in whole blood
Procedure: as §5

[12] = system: ST040 patient derived xenograft; assay: ST040 endometrial PDX model; type: in vivo, nu/nu mice
Procedure: as §3, §2

[13] = system: ST070 patient derived xenograft; assay: ST070 ovarian PDX model; type: in vivo, nu/nu mice
Procedure: as §3, §2

KB-PR tumors = assay: Paclitaxel-resistant KB-PR tumor xenograft in nu/nu mice; type: in vivo
Procedure: as §1, §2

[14] = set-up: method as in PMID 19276288; conditions: clinical studies, untargeted agent ref 19; cited from earlier work
KB tumor xenografts = assay: KB tumor xenograft in nu/nu mice; type: in vivo; conditions: SJG-136 0.3 mg/kg SIW x 2 weeks
Procedure: as §1, §2

[15] = Cisplatin 3 mg/kg BIW x 2 weeks, n=5
[16] = Eribulin mesylate 1 mg/kg SIW x 2 weeks, n=7
[17] = Paclitaxel 15 mg/kg SIW x 2 weeks, n=3
[18] = paclitaxel 15 mg/kg SIW x 2 weeks
[19] = Paclitaxel 15 mg/kg SIW x 2 weeks, n=7
[20] = Paclitaxel 20 mg/kg TIW x 2 weeks, n=5

N.N.[Cl][Pt][Cl] [cisplatin]
CR (complete response), number of animals (KB-CR tumors; [15]): 0 | Cures, number of animals (KB-CR tumors; [15]): 0 | PR (partial response), number of animals (KB-CR tumors; [15]): 0 | antitumor effect (KB-CR tumors; cisplatin 3 mg/kg BIW x 2 weeks): very little effect

C=C1C[C@@H]2CC[C@@]34C[C@H]5O[C@H]6[C@@H](O3)[C@H]3O[C@H](CC[C@@H]3O[C@H]6[C@H]5O4)CC(=O)C[C@@H]3[C@@H](OC)[C@@H](C[C@H](O)CN)O[C@H]3C[C@H]3O[C@@H](CC[C@@H]1O2)C[C@@H](C)C3=C [eribulin mesylate]
CR (complete response), number of animals [1, 16]: 0 | Cures, number of animals [1, 16]: 0 | PR (partial response), number of animals [1, 16]: one | PR (partial response), number of animals ([1]; Eribulin mesylate 1 mg/kg SIW x 2 weeks, n=7, listed as Eribulin mesylate): 1 | antitumor activity ([1]; eribulin mesylate 1 mg/kg SIW x 2 weeks): did not display significant anti-tumor activity | CR (complete response), number of animals [2]: 0 | Cures, number of animals [2]: 0 | PR (partial response), number of animals [2]: two | PR (partial response), number of animals ([2]; listed as Eribulin mesylate): 2

C=C1C[C@H]2C=Nc3cc(OCCCCCOc4cc5c(cc4OC)C(=O)N4CC(=C)C[C@H]4C=N5)c(OC)cc3C(=O)N2C1 [EC2491]
percent of compound remaining ([3]; dog liver microsomes, absence of NADPH, after 1 h): ~56% | percent of compound remaining ([3]; male dog liver microsomes, presence of NADPH, end of 1 h): 22% | metabolism in CYP3A induced microsomes versus corn-oil treated controls ([3]; rifampin-treated dog liver microsomes, + NADPH): more rapid metabolism | fraction unbound at 30 min, 500 nM [4]: 0.02 to 0.05 | time stable in plasma (Plasma stability, dog): greater than 24 h | stability in buffer [5]: stable | remaining at 2 h, 500 nM [6]: 87.3% | time stable in plasma (Plasma stability, rat): greater than 24 h | time stable in plasma (Plasma stability, mouse): greater than 24 h | percent of compound remaining ([7]; absence of NADPH, after 1 h): ~49% | percent of compound remaining ([7]; presence of NADPH, end of 1 h): 18% | remaining at 2 h, 500 nM [8]: 80.6% | remaining at 2 h, 500 nM [9]: 95.6% | metabolism in CYP3A induced microsomes versus corn-oil treated controls ([10]; dexamethasone-treated male rat liver microsomes, + NADPH): more rapid metabolism | percent of compound remaining ([10]; absence of NADPH, after 1 h): approximately 63% | percent of compound remaining ([10]; presence of NADPH, end of 1 h): 2% | remaining at 2 h, 500 nM [11]: 63.1%

CC(=O)O[C@H]1C(=O)[C@@]2(C)[C@H]([C@H](OC(=O)c3ccccc3)[C@]3(O)C[C@H](OC(=O)[C@H](O)[C@@H](NC(=O)c4ccccc4)c4ccccc4)C(C)=C1C3(C)C)[C@]1(OC(C)=O)CO[C@@H]1C[C@@H]2O [paclitaxel]
CR (complete response), number of animals [12, 17]: 0 | Cures, number of animals [12, 17]: 0 | PR (partial response), number of animals [12, 17]: 0 | antitumor effect [12, 18]: modest tumor growth delay | CR (complete response), number of animals [13, 19]: 0 | Cures, number of animals [13, 19]: 0 | PR (partial response), number of animals [13, 19]: 0 | antitumor effect [13, 18]: essentially inactive | CR (complete response), number of animals (KB-PR tumors; [20]): 0 | Cures, number of animals (KB-PR tumors; [20]): 0 | PR (partial response), number of animals (KB-PR tumors; [20]): 0 | antitumor effect (KB-PR tumors; paclitaxel 20 mg/kg TIW x 2 weeks): very little effect

C=C1C[C@H]2C=Nc3cc(OCCCOc4cc5c(cc4OC)C(=O)N4CC(=C)C[C@H]4C=N5)c(OC)cc3C(=O)N2C1 [SJG-136]
clinical toxicity [14]: dose-limiting hepatotoxicity and vascular leak syndrome | average weight loss (KB tumor xenografts): ~ 10% | deaths, number of animals (KB tumor xenografts; at 2 weeks post start of treatment, n=5): one | CR (complete response), number of animals (KB tumor xenografts; n=5): 0 | Cures, number of animals (KB tumor xenografts; n=5): 2 | PR (partial response), number of animals (KB tumor xenografts; n=5): 2
